Patent EP0429987B1, “5,11-Dihydro-6H-dipyrido[3,2-b:2',3'-e] [1,4]diazepines and their use in the prevention or treatment of HIV infection” (priority 1989, dated 1991)
Like-named read-outs stand apart in the source and are kept apart here.

Biological target: T1, HIV-1 RT (Human immunodeficiency virus type 1 group M subtype B, UniProt P03367)
T1 construct: Reverse transcriptase enzyme from the LAV strain of Human Immunodeficiency Virus (HIV-1) (1) was isolated; made in house; host or cells: E. coli JM109, clone pBRTprtl+ in vector pIBI21 (lac promoter, IPTG induction)
Assay: Reverse Transcriptase (RT) Assay: inhibition of RNA-dependent DNA polymerase activity
Type: biochemical
Conditions: for inhibition at 10 µg/mL: read-out: RT Assay % inhibition @ 10 µg/ml; for inhibition at 1 µM: read-out: RT Assay % inhibition
Description: Utilizing the Reverse Transcriptase (RT) Assay described below, compounds can be tested for their ability to inhibit the RNA-dependent DNA polymerase activity of HIV-1 RT.
Among the enzymes for which Human Immunodeficiency Virus (HIV-1) encodes is a reverse transcriptase (1), so-named because it transcribes a DNA copy from an RNA template. This activity can be quantitatively measured in a cell-free enzyme assay, which has been previously described (2), and is based upon the observation that reverse transcriptase is able to use a synthetic template [poly r(C) primed with oligo d(G)] to transcribe a radio-labelled, acid-precipitable DNA strand utilizing ^3H-dGTP as a substrate.
Reverse transcriptase enzyme from the LAV strain of Human Immunodeficiency Virus (HIV-1) (1) was isolated from the bacterial strain JM109 (3) expressing the DNA clone pBRTprtl+ (2) which is under the control of the lac promotor in the expression vector pIBI21 (4). An overnight culture grown in 2XYT medium (37°C, 225 rpm) (5) supplemented with 100 µg/ml ampicillin for positive selection is inoculated at a 1:40 dilution into M9 medium supplemented with 10µg/ml thiamine, 0.5% casamino acids, and 50 µg/ml ampicillin (5). The culture is incubated (37°C, 225 rpm) until it reaches an OD540 of 0.3-0.4. At that time the repressor inhibitor IPTG (isopropyl β-D-thiogalactopyranoside) is added to 0.5mM, and the mixture is incubated for 2 additional hours. Bacteria are pelleted, resuspended in a 50mM Tris, 0.6mM EDTA, 0.375M NaCl buffer and digested by the addition of lysozyme (1mg/ml) for 30 minutes on ice. The cells are lysed by the addition of 0.2% NP-40 and brought to 1M NaCl.
After removal of the insoluble debris by centrifugation, the protein is precipitated by the addition of 3 volumes of saturated aqueous ammonium sulfate. The enzyme is pelleted, resuspended in RT buffer (50mM Tris pH 7.5, 1mM EDTA, 5mM DTT, 0.1% NP-40, 0.1M NaCl, and 50% glycerol), and stored at -70°C for further use.
The 2X concentrated stock reaction mixture is aliquoted and stored at -20°C. […] This enzyme assay has been adapted to a 96 well microtiter plate system, and has been previously described (6). Tris buffer (50 mM, pH 7.4), vehicle (solvent diluted to match the compound dilution), or compounds in vehicle are dispensed into 96-well microtiter plates (10µl/well; 3 wells/ compound). The HIV-1 RT enzyme is thawed, diluted in 50mM Tris pH 7.4 so that fifteen µl of diluted enzyme contain 0.001 Unit (one unit is that amount of enzyme to transform 1 micromole of substrate per minute at 25°C), and fifteen µl are dispensed per well. Twenty µl of 0.12-0.5M EDTA are added to the first three wells of the microtiter plate. EDTA chelates the Mg^++ present and prevents reverse transcription. This group serves as background polymerization which is subtracted from all other groups. Twenty-five µl of the 2X reaction mixture are added to all wells and the assay is allowed to incubate at room temperature for 60 minutes. The assay is terminated by precipitating the DNA in each well with 50µl of 10% trichloracetic acid (TCA) (10% w/v) in sodium pyrophosphate (1% w/v). The microtiter plate is incubated for 15 minutes at 4°C and the precipitate is fixed onto #30 glass fiber paper (Schleicher & Schuell) using a Skatron semi-automatic harvester. The filters are then washed with additional TCA (5%) containing sodium pyrophosphate (1%), rinsed with aqueous ethanol (70%), dried, and transferred to scintillation vials (6). Each vial receives 2 mls of scintillation cocktail and is counted in a Beckman beta counter.
The calculation for percent inhibition is as follows: %inhibition =(CPM Mean Test Value - CPM Mean Control Value X100)/(CPM Mean Control Value) [formula]

Row | Compound | inhibition at 1 µM (@ 1µM (footnote *)) [%] | other results
1 | CCN1c2ncccc2C(=O)Nc2c(C(F)(F)F)cc(C)nc21 [Example 1, 5,11-Dihydro-11-ethyl-2-methyl-4-trifluoromethyl-6H-dipyrido-[3,2-b:2',3'-e][1,4]diazepin-6-one] |  | inhibition at 10 µg/mL: 100%
2 | Cc1ccnc2c1N(O)C(=O)c1cccnc1N2C1CC1 [Example 4, 11-Cyclopropyl-5,11-dihydro-5-hydroxy-4-methyl-6H-dipyrido[3,2-b:2',3'-e][1,4]diazepin-6-one] | 36 | 
3 | CCN1c2ncccc2C(=O)N(C)c2cc(Cl)c([N+](=O)[O-])nc21 [Example 8] | 40 | 
4 | CCc1ccnc2c1NC(=O)c1cccnc1N2C1CCC1 [Example 9] | 75 | 
5 | Cc1cc(C)c2c(n1)N(C1CC1)c1ncccc1C(=O)N2 [Example 10] |  | inhibition at 1 µM: 85%
6 | CCc1ccnc2c1NC(=O)c1cccnc1N2C1CC1 [Example 11] | 76 | 
7 | CCN1c2ncccc2C(=O)Nc2c(C)cc(Cl)nc21 [Example 12] | 91 | 
8 | Cc1cc(Cl)nc2c1NC(=O)c1cccnc1N2C1CC1 [Example 13] | 90 | 
9 | CN1C(=O)c2cccnc2N(C(C)(C)C)c2ncccc21 [Example 15] |  | inhibition at 10 µg/mL: 87%
10 | CCN1c2ncc(N=[N+]=[N-])cc2C(=O)N(C)c2cccnc21 [Example 16] | 63 | 
11 | CC(C)N1c2ncccc2NC(=O)c2cccnc21 [Example 17] |  | inhibition at 10 µg/mL: 99%
12 | O=C1Nc2cccnc2N(C2CC2)c2ncccc21 [Example 18] |  | inhibition at 10 µg/mL: 99%
13 | Cc1ccnc2c1N(C)C(=O)c1cccnc1N2C1CC1 [Example 19] | 50 | 
14 | CN1C(=O)c2cccnc2N(CC2CC2)c2ncccc21 [Example 20] |  | inhibition at 10 µg/mL: 93%
15 | CC[C@@H](C)N1c2ncccc2NC(=O)c2cccnc21 [Example 21] |  | inhibition at 10 µg/mL: 85%
16 | CCN1c2ncccc2C(=O)N(C)c2cc(C)c(C)nc21 [Example 22] |  | inhibition at 10 µg/mL: 100%
17 | CC[C@H](C)N1c2ncccc2NC(=O)c2cccnc21 [Example 23] |  | inhibition at 10 µg/mL: 88%
18 | O=C1Nc2cccnc2N(C2CCCC2)c2ncccc21 [Example 24] | 35 | 
19 | CCN1c2ncccc2C(=O)N(C)c2c(C)cc(N3CCCC3)nc21 [Example 25] | 94 | 
20 | CCN1c2ncccc2C(=O)N(C)c2ccc(N3CC=CC3)nc21 [Example 26] | 86 | 

Row | Compound | inhibition at 1 µM (@ 1µM (footnote *)) [%] | other results
21 | CCN1c2ncccc2NC(=O)c2c(C)cc(C)nc21 [Example 27] | 2 | 
22 | CN1C(=O)c2cccnc2N(C2CCCC2)c2ncccc21 [Example 28] | 34 | 
23 | COCN1C(=O)c2cccnc2N(COC)c2nccc(C)c21 [Example 29] |  | inhibition at 10 µg/mL: 0%
24 | CCN1c2ncccc2C(=O)Nc2c(C(F)(F)F)cc(Cl)nc21 [Example 30] |  | inhibition at 10 µg/mL: 100%
25 | O=C1Nc2cccnc2N(C2CCC2)c2ncccc21 [Example 31] |  | inhibition at 10 µg/mL: 99%
26 | CN1C(=O)c2cccnc2N(C2CCC2)c2ncccc21 [Example 32] |  | inhibition at 10 µg/mL: 100%
27 | O=C1Nc2c(Cl)ccnc2N(C2CC2)c2ncccc21 [Example 33] | 83 | 
28 | COc1ccnc2c1NC(=O)c1cccnc1N2C1CC1 [Example 35] |  | inhibition at 10 µg/mL: 91%
29 | CCN1c2ncccc2C(=O)N(C)c2ccc(N(C)Cc3ccc(OC)cc3)nc21 [Example 36] | 64 | 
30 | C=CCNc1ccc2c(n1)N(CC)c1ncccc1C(=O)N2C [Example 37] | 70 | 
31 | O=C1Nc2c(CO)ccnc2N(C2CC2)c2ncccc21 [Example 38] | 34 | 
32 | CCN1c2ncc([N+](=O)[O-])cc2C(=O)N(C)c2cc([N+](=O)[O-])cnc21 [Example 39] |  | inhibition at 1 µM: 0%
33 | CCN1c2ncc([N+](=O)[O-])cc2C(=O)N(C)c2cc(Cl)c([N+](=O)[O-])nc21 [Example 40] |  | inhibition at 1 µM: 0%
34 | Cc1ccnc2c1NC(=O)c1c(O)ccnc1N2C1CC1 [Example 41] | 32 | 
35 | Cc1ccnc2c1NC(=S)c1cccnc1N2C1CC1 [Example 42, 5,11 Dihydro-6H-11-cyclopropyl-4-methyl-dipyrido[3,2-b:2',3'-e][1,4]diazepin-6-thione] |  | inhibition at 1 µM: 90%
36 | CN1C(=O)c2cccnc2N(C#N)c2ncccc21 [Example 43] |  | inhibition at 10 µg/mL: 44%
37 | CN1C(=O)c2cccnc2N(C2CCCCC2)c2ncccc21 [Example 44] | 90 | 
38 | O=C1Nc2cccnc2N(C2CCCCC2)c2ncccc21 [Example 45] | 35 | 
39 | CCN1c2ncccc2NC(=O)c2c1nc(C)c(Cl)c2C [Example 46] |  | inhibition at 10 µg/mL: 44%
40 | CN1C(=O)c2cccnc2N(S(C)(=O)=O)c2ncccc21 [Example 48] |  | inhibition at 10 µg/mL: 77%

Row | Compound | inhibition at 1 µM (@ 1µM (footnote *)) [%] | other results
41 | CCN1c2ncccc2C(=O)N(C)c2cc(Cl)c(N)nc21 [Example 49] | 52 | 
42 | C=CCN1C(=O)c2cccnc2N(C2CC2)c2nccc(C)c21 [Example 50] | 44 | 
43 | CCN1c2ncc(N)cc2C(=O)N(C)c2cc(N)cnc21 [Example 51] | 20 | 
44 | C=COC(=O)N1C(=O)c2cccnc2N(C2CC2)c2nccc(C)c21 [Example 52] | 72 | 
45 | CON1C(=O)c2cccnc2N(C2CC2)c2nccc(C)c21 [Example 53] | 17 | 
46 | CC(=O)N1C(=O)c2cccnc2N(C2CC2)c2nccc(C)c21 [Example 54] |  | inhibition at 0.5 µM (@ 0.5µM): 30%
47 | CCN1c2ncccc2C(=O)N(C)c2ccc(NCc3ccc(OC)cc3)nc21 [Example 55] | 61 | 
48 | CCN1c2ncccc2C(=O)N(C)c2ccc(N3CCOCC3)nc21 [Example 56] | 68 | 
49 | CCN1c2ncccc2C(=O)N(C)c2ccc(N3CCCCC3)nc21 [Example 57] | 66 | 
50 | N#Cc1ccnc2c1NC(=O)c1cccnc1N2C1CC1 [Example 58] |  | inhibition at 1.25 µM (@ 1.25µM (footnote +)): 37%
51 | CN(C)CCN1C(=O)c2cccnc2N(C2CC2)c2ncccc21 [Example 59] | 8 | 
52 | CCN1c2ncccc2C(=O)N(C)c2ccc(N(C)C)nc21 [Example 60] | 90 | 
53 | CCNc1ccc2c(n1)N(CC)c1ncccc1C(=O)N2C [Example 61] | 75 | 
54 | CCN1c2ncc([N+](=O)[O-])cc2C(=O)N(C)c2cccnc21 [Example 62] | 0 | 
55 | CCN1c2nc(N(C)C)ccc2NC(=O)c2cccnc21 [Example 63] | 98 | 
56 | CCN1c2ncccc2C(=O)Nc2c1nc(N1CCCC1)c(Cl)c2C [Example 64] | 94 | 
57 | CCN1c2ncc(N)cc2C(=O)N(C)c2cccnc21 [Example 65, 8-Amino-5,11-dihydro-11-ethyl-5-methyl-6H-dipyrido[3,2-b:2',3'-e] [1,4]diazepin-6-one hemihydrate] | 82 | 
58 | CCN1c2ncccc2C(=NC#N)Nc2c(C)cc(C)nc21 [Example 66, 6-Cyanoimino-5,11-dihydro-11-ethyl-2,4-dimethyl-6H-dipyrido[3,2-b:2',3'-e][1,4]diazepine] |  | inhibition at 10 µg/mL: 100%
59 | CCN1c2ncccc2C(=NOC)Nc2c(C)cc(C)nc21 [Example 67, 5,11-Dihydro-11-ethyl-6-methoxyimino-2,4-dimethyl-6H-dipyrido[3,2-b:2',3'-e][1,4]diazepine] |  | inhibition at 1 µM: 88%
